Patent publication US10287297B2, “Epoxyazulene derivatives useful for treating cancer and diabetes” (The United States of America, as represented by the …, priority 2015, dated 2019)

Legend:
Assay type in all cases: cell-based
K-562 = test: NCI 60 cell assay, leukemia K-562; details: Homo sapiens, K562, 48 h; K-562 (leukemia); drug exposure two days, SRB endpoint; read-out: GI-50 value
Method: (§1) Samples were tested in the standard National Cancer Institute 60-cell line protocol. First, they were tested against all 60 cell lines in a single final concentration of 10 micromolar. Then, they were separately tested in five 10-fold dilutions. The drug exposure was two days, with an SRB endpoint.

MOLT-4 = test: NCI 60 cell assay, leukemia MOLT-4; details: Homo sapiens, 48 h; MOLT-4 (leukemia); drug exposure two days, SRB endpoint; read-out: GI-50 value
Method: as §1

RPMI-8226 = test: NCI 60 cell assay, leukemia RPMI-8226; details: Homo sapiens, 48 h; RPMI-8226 (leukemia); drug exposure two days, SRB endpoint; read-out: GI-50 value
Method: as §1

SR = test: NCI 60 cell assay, leukemia SR; details: Homo sapiens, 48 h, drug exposure two days, SRB endpoint, read-out: GI-50 value
Method: as §1

EKVX = test: NCI 60 cell assay, NSCLC EKVX; details: Homo sapiens, 48 h, drug exposure two days, SRB endpoint, read-out: GI-50 value
Method: as §1

HOP-62 = test: NCI 60 cell assay, NSCLC HOP-62; details: Homo sapiens, 48 h; HOP-62 (NSCLC); drug exposure two days, SRB endpoint; read-out: GI-50 value
Method: as §1

NCI-H226 = test: NCI 60 cell assay, NSCLC NCI-H226; details: Homo sapiens, 48 h, drug exposure two days, SRB endpoint, read-out: GI-50 value
Method: as §1

NCI-H23 = test: NCI 60 cell assay, NSCLC NCI-H23; details: Homo sapiens, 48 h, drug exposure two days, SRB endpoint, read-out: GI-50 value
Method: as §1

NCI-H460 = test: NCI 60 cell assay, NSCLC NCI-H460; details: Homo sapiens, 48 h, drug exposure two days, SRB endpoint, read-out: GI-50 value
Method: as §1

COLO 205 = test: NCI 60 cell assay, colon COLO 205; details: Homo sapiens, 48 h; COLO 205 (colon); drug exposure two days, SRB endpoint; read-out: GI-50 value
Method: as §1

HCT-116 = test: NCI 60 cell assay, colon HCT-116; details: Homo sapiens, 48 h; HCT-116 (colon); drug exposure two days, SRB endpoint; read-out: GI-50 value
Method: as §1

KM12 = test: NCI 60 cell assay, colon KM12; details: Homo sapiens, 48 h, drug exposure two days, SRB endpoint, read-out: GI-50 value
Method: as §1

SF-268 = test: NCI 60 cell assay, CNS SF-268; details: Homo sapiens, 48 h; SF-268 (CNS); drug exposure two days, SRB endpoint; read-out: GI-50 value
Method: as §1

SF-539 = test: NCI 60 cell assay, CNS SF-539; details: Homo sapiens, 48 h; SF-539 (CNS); drug exposure two days, SRB endpoint; read-out: GI-50 value
Method: as §1

SNB-19 = test: NCI 60 cell assay, CNS SNB-19; details: Homo sapiens, 48 h; SNB-19 (CNS); drug exposure two days, SRB endpoint; read-out: GI-50 value
Method: as §1

SNB-75 = test: NCI 60 cell assay, CNS SNB-75; details: Homo sapiens, 48 h; SNB-75 (CNS); drug exposure two days, SRB endpoint; read-out: GI-50 value
Method: as §1

LOX IMVI = test: NCI 60 cell assay, melanoma LOX IMVI; details: Homo sapiens, 48 h, drug exposure two days, SRB endpoint, read-out: GI-50 value
Method: as §1

MALME-3M = test: NCI 60 cell assay, melanoma MALME-3M; details: Homo sapiens, 48 h; MALME-3M (melanoma); drug exposure two days, SRB endpoint; read-out: GI-50 value
Method: as §1

M14 = test: NCI 60 cell assay, melanoma M14; details: Homo sapiens, 48 h, drug exposure two days, SRB endpoint, read-out: GI-50 value
Method: as §1

MDA-MB-435 = test: NCI 60 cell assay, melanoma MDA-MB-435; details: Homo sapiens, 48 h; MDA-MB-435 (melanoma); drug exposure two days, SRB endpoint; read-out: GI-50 value
Method: as §1

SK-MEL-2 = test: NCI 60 cell assay, melanoma SK-MEL-2; details: Homo sapiens, 48 h; SK-MEL-2 (melanoma); drug exposure two days, SRB endpoint; read-out: GI-50 value
Method: as §1

SK-MEL-28 = test: NCI 60 cell assay, melanoma SK-MEL-28; details: Homo sapiens, 48 h; SK-MEL-28 (melanoma); drug exposure two days, SRB endpoint; read-out: GI-50 value
Method: as §1

UACC-62 = test: NCI 60 cell assay, melanoma UACC-62; details: Homo sapiens, 48 h; UACC-62 (melanoma); drug exposure two days, SRB endpoint; read-out: GI-50 value
Method: as §1

OVCAR-3 = test: NCI 60 cell assay, ovarian OVCAR-3; details: Homo sapiens, 48 h; OVCAR-3 (ovarian); drug exposure two days, SRB endpoint; read-out: GI-50 value
Method: as §1

ACHN = test: NCI 60 cell assay, renal ACHN; details: Homo sapiens, 48 h, drug exposure two days, SRB endpoint, read-out: GI-50 value
Method: as §1

CAKI-1 = test: NCI 60 cell assay, renal CAKI-1; details: Homo sapiens, 48 h; CAKI-1 (renal); drug exposure two days, SRB endpoint; read-out: GI-50 value
Method: as §1

PC-3 = test: NCI 60 cell assay, prostate PC-3; details: Homo sapiens, 48 h; PC-3 (prostate); drug exposure two days, SRB endpoint; read-out: GI-50 value
Method: as §1

DU-145 = test: NCI 60 cell assay, prostate DU-145; details: Homo sapiens, 48 h; DU-145 (prostate); drug exposure two days, SRB endpoint; read-out: GI-50 value
Method: as §1

MCF7 = test: NCI 60 cell assay, breast MCF7; details: Homo sapiens, 48 h, drug exposure two days, SRB endpoint, read-out: GI-50 value
Method: as §1

MDA-MB-231/ATCC = test: NCI 60 cell assay, breast MDA-MB-231/ATCC; details: Homo sapiens, 48 h; MDA-MB-231/ATCC (breast); drug exposure two days, SRB endpoint; read-out: GI-50 value
Method: as §1

BT-549 = test: NCI 60 cell assay, breast BT-549; details: Homo sapiens, 48 h; BT-549 (breast); drug exposure two days, SRB endpoint; read-out: GI-50 value
Method: as §1

T-47D = test: NCI 60 cell assay, breast T-47D; details: Homo sapiens, T47D, 48 h; T-47D (breast); drug exposure two days, SRB endpoint; read-out: GI-50 value
Method: as §1

MDA-MB-468 = test: NCI 60 cell assay, breast MDA-MB-468; details: Homo sapiens, 48 h; MDA-MB-468 (breast); drug exposure two days, SRB endpoint; read-out: GI-50 value
Method: as §1

Compound	GI50 (K-562)	GI50 (MOLT-4)	GI50 (RPMI-8226)	GI50 (SR)	GI50 (EKVX)	GI50 (HOP-62)	GI50 (NCI-H226)	GI50 (NCI-H23)	GI50 (NCI-H460)	GI50 (COLO 205)	GI50 (HCT-116)	GI50 (KM12)	GI50 (SF-268)	GI50 (SF-539)	GI50 (SNB-19)	GI50 (SNB-75)	GI50 (LOX IMVI)	GI50 (MALME-3M)	GI50 (M14)	GI50 (MDA-MB-435)	other results
CC1=C2[C@@H](CC1)[C@]1(C)O[C@@](C(C)C)(C[C@H]1OC(=O)CO)[C@H]2OC(=O)C1CC1c1ccccc1 (stereo partly drawn) [Compound (Ij), (3aR,4S,5R,7R,8S)-5-(2-hydroxyacetoxy)-7-isopropyl-1,4-dimethyl-2,3,3a,4,5,6,7,8-octahydro-4,7-epoxyazulen-8-yl-2-phenylcyclopropane-1-carboxylate]	15 µM	9 µM	13 µM	14 µM	13 µM	17 µM	17 µM	15 µM	16 µM	17 µM	19 µM	13 µM	14 µM	17 µM	17 µM	15 µM	15 µM	17 µM	13 µM	15 µM	GI50 (SK-MEL-2): 16 µM; GI50 (SK-MEL-28): 17 µM; GI50 (UACC-62): 12 µM; GI50 (OVCAR-3): 14 µM; GI50 (ACHN): 1400 nM; GI50 (CAKI-1): 12 µM; GI50 (PC-3): 9 µM; GI50 (DU-145): 16 µM; GI50 (MCF7): 8.9 µM; GI50 (MDA-MB-231/ATCC): 15 µM; GI50 (BT-549): 14 µM; GI50 (T-47D): 4.6 µM; GI50 (MDA-MB-468): 13 µM
CC1=C2[C@@H](CC1)[C@]1(C)O[C@@](C3CC3)(C[C@H]1OC(=O)CO)[C@H]2OC(=O)C=Cc1ccccc1 [Compound (Is), (3aR,4S,5R,7R,8S)-7-cyclopropyl-5-(2-hydroxyacetoxy)-1,4-dimethyl-2,3,3a,4,5,6,7,8-octahydro-4,7-epoxyazulen-8-yl cinnamate]	20 µM	16 µM	20 µM	17 µM	14 µM	16 µM	17 µM	17 µM	18 µM	19 µM	16 µM	17 µM	1.6 µM	17 µM	19 µM	13 µM	17 µM	16 µM	17 µM	17 µM	GI50 (SK-MEL-2): 19 µM; GI50 (SK-MEL-28): 18 µM; GI50 (UACC-62): 15 µM; GI50 (OVCAR-3): 16 µM; GI50 (ACHN): 28 nM; GI50 (CAKI-1): 11 µM; GI50 (PC-3): 15 µM; GI50 (DU-145): 18 µM; GI50 (MCF7): 13 µM; GI50 (MDA-MB-231/ATCC): 18 µM; GI50 (BT-549): 0.21 µM; GI50 (T-47D): 14 µM; GI50 (MDA-MB-468): 15 µM
